Results as given in patent publication US20250275966A1, “GABAA RECEPTOR MODULATOR SALTS, PARTICLES, AND USES THEREOF” (Engrail Therapeutics, Inc., priority 2022, published 2025).
In brackets after ≈: the same amount, converted by molar mass. Where a name gives a salt, the structure may show the parent alone.

Assays:
[1] = Pharmacokinetic analysis of Compound 1 and its salts after oral capsule administration (Example 4); type: in vivo, cynomolgus monkeys; settings: single PO capsule, 30 mg/kg
Protocol: A pharmacokinetic analysis was performed comparing administration of Compound 1 with certain salts of Compound 1 after oral (PO) administration in 3 male cynomolgus monkeys. The subjects received a single PO oral gavage of active pharmaceutical ingredient (API) (e.g., Compound 1 fumarate, Compound 1 sulfate, Compound 1 hydrochloride, Compound 1 phosphate, Compound 1 tosylate, Compound 1 malonate, Compound 1 maleate, or Compound 1 free base) in a capsule at a dose of 30 mg/kg. Following dose administration, the animals were flushed with approximately 10 milliliters of tap water to ensure all API was administered. Animals were observed twice daily and at sample collection time-points for any abnormal clinical and behavioral signs. Body weights were taken prior to dosing and weekly thereafter until study termination. Blood samples (0.5 mL) were collected pre-dose, 15 minutes, 30 minutes, and 1, 2, 4, 6, 8, 10, 12, and 24 hours post-dose. Each blood sample was collected from the monkey's femoral, saphenous or other available vein via direct venipuncture, placed into a polypropylene tube containing K2EDTA as the anticoagulant, and gently inverted several times to mix. The blood samples were kept on wet ice until centrifugation. Blood was centrifuged within 10 minutes of collection. The samples were centrifuged at a temperature of 4° C., at 3,000 g, for 5 minutes. The resulting plasma (˜0.25 mL) was divided into two equal aliquots (125 μL each) into polypropylene tubes, designated as Set A and Set B, after centrifugation. Plasma samples designated for certain metabolites (Set A) were treated with 12.5 μL of 2 M ascorbic acid (plasma: ascorbic acid=[…], v:v) prepared beforehand by combining 0.352 g of ascorbic acid into 1 mL of sterile water in a glass vial and mixing thoroughly. […] Once plasma was prepared, the samples were snap frozen on dry ice. All plasma samples were stored frozen below −70° C. until analyzed.

[2] = Intrinsic dissolution rate and solubility in 0.1 N HCl with 1% Tween 80 (USP <1087>); type: physicochemical; settings: 0.1 N HCl with 1% Tween 80, 37° C.; for Solubility, time point 15 min / Solubility, time point 30 min / Solubility, time point 45 min / Solubility, time point 60 min / Solubility, time point 75 min / Solubility, time point 90 min / Solubility, time point 105 min / Solubility, time point 120 min: 500 mL, pellet about 75 mg; for Intrinsic Dissolution Rate IDR: paddle 100 rpm, die surface 0.5 cm^2; for Solubility, Cumulative: sum of the 15-120 min time points
Protocol: The intrinsic dissolution rate was determined by forming compacted pellets of approximately 75 mg of API using a compression force of 1200 pounds of force, and each pellet (die surface area: 0.5 cm^2) was immersed into a flat bottom vessel containing 500 mL of medium (aqueous 0.1 N HCl with 1% Tween 80 (polyoxyethylene (20) sorbitan monooleate)), using a Distek 2100A dissolution bath, and Distek Circulator/heater (set to 37° C.), with a paddle speed of 100 rpm. An aliquot of the sample (1 mL) was pulled from dissolution media at 15, 30, 45, 60, 75, 90, 105, and 120 minutes, filtered, and analyzed by HPLC. The slope of the dissolution profile corresponded to an intrinsic dissolution rate of hemi-fumarate salt Form B of 6.2 μg/(min·cm^2) as compared to 8.9 μg/(min·cm^2) for Compound 1 (free base). Determination of intrinsic dissolution rate (IDR) was performed for Compound 1 and seven different salts of Compound 1 according to USP <1087> in 0.1 N hydrochloric acid with 1% Tween 80 (Polyoxyethylene […] sorbitan monooleate). Compacted pellets containing approximately 75 mg API were prepared using a compression force of 1200 pounds of force, and each pellet (die surface area: 0.5 cm^2) was immersed into a flat bottom vessel containing 500 mL of medium, using a Distek 2100A dissolution bath, and Distek Circulator/heater (set to 37° C.), with a paddle speed of 100 rpm. An aliquot of the sample (1 mL) was pulled from dissolution media at 15, 30, 45, 60, 75, 90, 105, and 120 minutes, filtered, and analyzed by HPLC. HPLC for IDR and solid-state stability analyses were conducted with an Agilent 1260 Infinity system equipped with a G1311B Quad pump, […] Autosampler, G1330B auto-sampler thermostat, G1316A Thermostatted Column Compartment with a column switch valve, and […] diode array detector.

[3] = 3 male cynomolgus monkeys, plasma Compound 1
[4] = 3 male cynomolgus monkeys, plasma Compound 1, listed as Free base
[5] = listed as Compound 1 (parent free base)

[2H]C([2H])([2H])C(c1cc2nnc(-c3cc(F)ccc3F)n2nc1OCc1ncnn1C)(C([2H])([2H])[2H])C([2H])([2H])[2H] [Compound 1, 3-(2,5-difluorophenyl)-7-[1,1-di(methyl-d3)ethyl-2,2,2-d3]-6-[(1-methyl-1H-1,2,4-triazol-5-yl)methoxy]-1,2,4-triazolo[4,3-b]pyridazine] gave a Cmax [1, 3] of 1.55 µg/mL, an AUClast [1, 4] of 25.463 µg·h/mL and a Tmax [1, 4] of 4.0 h. The AUClast ([1]; male cynomolgus monkeys) was 25.463 µg·h/mL, the “Solubility, time point 15 min” value [2, 5] was 0.413 µg/mL (≈ 1.01 µM) and the “Solubility, time point 30 min” value [2, 5] was 0.464 µg/mL (≈ 1.14 µM). For the same compound, the “Solubility, time point 45 min” value [2, 5] was 0.641 µg/mL (≈ 1.57 µM), the “Solubility, time point 60 min” value [2, 5] was 0.823 µg/mL (≈ 2.01 µM) and the “Solubility, time point 75 min” value [2, 5] was 0.89 µg/mL (≈ 2.18 µM). The “Solubility, time point 90 min” value [2, 5] was 1.026 µg/mL (≈ 2.51 µM), the “Solubility, time point 105 min” value [2, 5] was 1.23 µg/mL (≈ 3.01 µM) and the “Solubility, time point 120 min” value [2, 5] was 1.31 µg/mL (≈ 3.21 µM). The “Intrinsic Dissolution Rate IDR” value ([2]; listed as Compound 1 (free base)) was 8.9 μg/(min · cm^2), the “Intrinsic Dissolution Rate IDR” value [2, 5] was 8.9 μg/(min · cm^2) and the “Solubility, Cumulative” value [2, 5] was 6.797 µg/mL (≈ 16.6 µM).

[2H]C([2H])([2H])C(c1cc2nnc(-c3cc(F)ccc3F)n2nc1OCc1ncnn1C)(C([2H])([2H])[2H])C([2H])([2H])[2H] [Maleate Salt, 3-(2,5-difluorophenyl)-7-[1,1-di(methyl-d3)ethyl-2,2,2-d3]-6-[(1-methyl-1H-1,2,4-triazol-5-yl)methoxy]-1,2,4-triazolo[4,3-b]pyridazine] gave an AUClast [1, 3] of 20.575 µg·h/mL, a Cmax [1, 3] of 1.388 µg/mL and a Tmax [1, 3] of 12.0 h. The “Solubility, time point 15 min” value [2] was 0.245 µg/mL, the “Solubility, time point 30 min” value [2] was 0.36 µg/mL and the “Solubility, time point 45 min” value [2] was 0.462 µg/mL. The “Solubility, time point 60 min” value [2] was 0.567 µg/mL, the “Solubility, time point 75 min” value [2] was 0.681 µg/mL and the “Solubility, time point 90 min” value [2] was 0.791 µg/mL. The “Solubility, time point 105 min” value [2] was 0.941 µg/mL, the “Solubility, time point 120 min” value [2] was 1.01 µg/mL and the “Intrinsic Dissolution Rate IDR” value [2] was 7.3 μg/(min · cm^2). For the same compound, the “Solubility, Cumulative” value [2] was 5.057 µg/mL.

Work on [2H]C([2H])([2H])C(c1cc2nnc(-c3cc(F)ccc3F)n2nc1OCc1ncnn1C)(C([2H])([2H])[2H])C([2H])([2H])[2H] [Malonate Salt, 3-(2,5-difluorophenyl)-7-[1,1-di(methyl-d3)ethyl-2,2,2-d3]-6-[(1-methyl-1H-1,2,4-triazol-5-yl)methoxy]-1,2,4-triazolo[4,3-b]pyridazine] yielded an AUClast [1, 3] of 24.694 µg·h/mL, a Cmax [1, 3] of 2.01 µg/mL and a Tmax [1, 3] of 4.7 h. The “Solubility, time point 15 min” value [2] was 0.352 µg/mL, the “Solubility, time point 30 min” value [2] was 0.454 µg/mL and the “Solubility, time point 45 min” value [2] was 0.579 µg/mL. For the same compound, the “Solubility, time point 60 min” value [2] was 0.68 µg/mL, the “Solubility, time point 75 min” value [2] was 0.757 µg/mL and the “Solubility, time point 90 min” value [2] was 0.87 µg/mL. For the same compound, the “Solubility, time point 105 min” value [2] was 1.04 µg/mL, the “Solubility, time point 120 min” value [2] was 1.05 µg/mL and the “Intrinsic Dissolution Rate IDR” value [2] was 6.9 μg/(min · cm^2). For the same compound, the “Solubility, Cumulative” value [2] was 5.782 µg/mL.

[2H]C([2H])([2H])C(c1cc2nnc(-c3cc(F)ccc3F)n2nc1OCc1ncnn1C)(C([2H])([2H])[2H])C([2H])([2H])[2H] [Phosphate Salt, 3-(2,5-difluorophenyl)-7-[1,1-di(methyl-d3)ethyl-2,2,2-d3]-6-[(1-methyl-1H-1,2,4-triazol-5-yl)methoxy]-1,2,4-triazolo[4,3-b]pyridazine] gave an AUClast [1, 3] of 18.378 µg·h/mL, a Cmax [1, 3] of 1.096 µg/mL and a Tmax [1, 3] of 5.3 h. The “Solubility, time point 15 min” value [2] was 0.358 µg/mL, the “Solubility, time point 30 min” value [2] was 0.375 µg/mL and the “Solubility, time point 45 min” value [2] was 0.449 µg/mL. The “Solubility, time point 60 min” value [2] was 0.543 µg/mL, the “Solubility, time point 75 min” value [2] was 0.615 µg/mL and the “Solubility, time point 90 min” value [2] was 0.769 µg/mL. The “Solubility, time point 105 min” value [2] was 0.912 µg/mL, the “Solubility, time point 120 min” value [2] was 0.11 µg/mL and the “Intrinsic Dissolution Rate IDR” value [2] was 7.0 μg/(min · cm^2). For the same compound, the “Solubility, Cumulative” value [2] was 4.131 µg/mL.

With [2H]C([2H])([2H])C(c1cc2nnc(-c3cc(F)ccc3F)n2nc1OCc1ncnn1C)(C([2H])([2H])[2H])C([2H])([2H])[2H] [Sulfate Salt, 3-(2,5-difluorophenyl)-7-[1,1-di(methyl-d3)ethyl-2,2,2-d3]-6-[(1-methyl-1H-1,2,4-triazol-5-yl)methoxy]-1,2,4-triazolo[4,3-b]pyridazine] the AUClast [1, 3] was 18.231 µg·h/mL, the Cmax [1, 3] was 1.151 µg/mL and the Tmax [1, 3] was 4.0 h. The “Solubility, time point 15 min” value [2] was 0.316 µg/mL, the “Solubility, time point 30 min” value [2] was 0.364 µg/mL and the “Solubility, time point 45 min” value [2] was 0.453 µg/mL. For the same compound, the “Solubility, time point 60 min” value [2] was 0.569 µg/mL, the “Solubility, time point 75 min” value [2] was 0.668 µg/mL and the “Solubility, time point 90 min” value [2] was 0.772 µg/mL. For the same compound, the “Solubility, time point 105 min” value [2] was 0.944 µg/mL, the “Solubility, time point 120 min” value [2] was 1.06 µg/mL and the “Intrinsic Dissolution Rate IDR” value [2] was 7.1 μg/(min · cm^2). The “Solubility, Cumulative” value [2] was 5.146 µg/mL.

With [2H]C([2H])([2H])C(c1cc2nnc(-c3cc(F)ccc3F)n2nc1OCc1ncnn1C)(C([2H])([2H])[2H])C([2H])([2H])[2H] [Tosylate Salt, 3-(2,5-difluorophenyl)-7-[1,1-di(methyl-d3)ethyl-2,2,2-d3]-6-[(1-methyl-1H-1,2,4-triazol-5-yl)methoxy]-1,2,4-triazolo[4,3-b]pyridazine] the AUClast [1, 3] was 23.248 µg·h/mL, the Cmax [1, 3] was 1.629 µg/mL and the Tmax [1, 3] was 10.7 h. For the same compound, the “Solubility, time point 15 min” value [2] was 0.56 µg/mL, the “Solubility, time point 30 min” value [2] was 0.638 µg/mL and the “Solubility, time point 45 min” value [2] was 0.755 µg/mL. For the same compound, the “Solubility, time point 60 min” value [2] was 0.88 µg/mL, the “Solubility, time point 75 min” value [2] was 1.02 µg/mL and the “Solubility, time point 90 min” value [2] was 1.15 µg/mL. For the same compound, the “Solubility, time point 105 min” value [2] was 1.43 µg/mL, the “Solubility, time point 120 min” value [2] was 1.39 µg/mL and the “Intrinsic Dissolution Rate IDR” value [2] was 8.7 μg/(min · cm^2). The “Solubility, Cumulative” value [2] was 7.823 µg/mL.
